Columns and labels:
[1] = test system: colonic propulsive motility; assay: Glass bead test of colonic propulsive motility in mice; type: in vivo, mouse; settings: 32 mg/kg IP; for Expulsion Time Mean ± SEM: 3 mm glass bead inserted 30 minutes after dosing, cut-off time 30 minutes, 10 per group; for Expulsion Time Mean ± SEM / inhibition at 32 mg/kg: female Swiss Webster mice; for inhibition at 32 mg/kg: Mus musculus, inhibition of bead expulsion vs vehicle; for inhibition of colonic propulsion (in words): summary of Table 1 data, mice
Source text: This model is predictive of agents that may be used to treat the alterations in propulsion of intestinal contents that occur in individuals diagnosed with IBS. The model is very sensitive to test compounds producing inhibitory effects on propulsive motor activity, but is not sensitive to test articles increasing colonic propulsive motility. The model provides a direct measure of colonic propulsion. Thus, a test compound that slows the rate at which a glass bead is expelled, is predicted to have utility in the treatment of IBS,
This test is also used to evaluate test articles with potential to produce constipation, antidiarrheal activity, or have selective visceral anti-nociceptive activity in addition to being used as an animal model for irritable bowel syndrome.
For the present example, seventy test animals (female, 6 week old Swiss Webster mice, 18-30 g) were divided into 7 groups of 10 animals each for administration of six test compounds and vehicle alone as a control.
Each animal was dosed (IP) with either a compound of formula I, one of two related 2,3-benzodiazepines or vehicle alone. Thirty minutes after dosing, a 3 mm glass bead was inserted through the anus to a depth of 2 cm into the distal colon using a glass rod. […] Any test animal that had not expelled the bead within a cut-off time of 30 minutes was sacrificed and the position of the bead in the lumen of the colon was verified.
Such observations included gross evaluation of skin and fur, eyes and mucous membranes, respiratory, circulatory, autonomic and central nervous system, somatomotor activity and behavioral patterns. Particular attention was directed to observation of tremors, convulsions, salivation, diarrhea, sleep and coma. No signs of gross toxicity were observed. Mean and standard error of the mean were calculated for the expulsion times for each group.

peripheral BZ receptors = peripheral BZ receptors (Homo sapiens, UniProt P30536); settings: cited from earlier work
Sequence of peripheral BZ receptors (P30536 whole entry): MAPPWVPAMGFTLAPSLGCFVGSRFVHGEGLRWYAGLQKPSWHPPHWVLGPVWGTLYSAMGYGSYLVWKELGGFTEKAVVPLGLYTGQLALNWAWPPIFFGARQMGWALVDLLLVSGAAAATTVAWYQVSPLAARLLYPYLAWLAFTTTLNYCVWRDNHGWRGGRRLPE

central BZ receptors = settings: cited from earlier work
muricide in rats = settings: cited from earlier work
aggression in mice = settings: cited from earlier work
[2] = test system: anti-noradrenergic effects; settings: cited from earlier work
narcosis in mice = settings: cited from earlier work

Compound	Expulsion Time Mean ± SEM [1]	inhibition at 32 mg/kg [1]	inhibition of colonic propulsion (in words) [1]	binding to peripheral BZ receptors (peripheral BZ receptors)	interaction with central BZ receptors (central BZ receptors)	inhibition of muricide (muricide in rats)	inhibition of aggression (aggression in mice)	anti-noradrenergic effects [2]	narcosis-potentiating activity (narcosis in mice)
CCC1C(C)=NN=C(c2ccc(OC)c(OC)c2)c2cc(O)c(OC)cc21 (racemic) [Compound 2, 1-(3,4-dimethoxyphenyl)-4-methyl-5-ethyl-7-methoxy-8-hydroxy-5H-2,3-benzodiazepine]	17.2 ± 3.5	23%	–	–	–	–	–	–	–
CCC1C(C)=NN=C(c2ccc(OC)c(O)c2)c2cc(OC)c(OC)cc21 (racemic) [Compound 4, 1-(3-hydroxy-4-methoxyphenyl)-4-methyl-5-ethyl-7,8-dimethoxy-5H-2,3-benzodiazepine]	20.3 ± 3.5	42%	substantial inhibition of colonic propulsion	–	–	–	–	–	–
CCC1C(C)=NN=C(c2ccc(OC)c(OC)c2)c2cc(OC)c(OC)cc21 (racemic) [tofisopam, 1-(3,4-dimethoxyphenyl)-4-methyl-5-ethyl-7,8-dimethoxy-5H-2,3-benzodiazepine]	–	–	–	binds only weakly	does not interact	–	–	–	–
CCC1C(C)=NN=C(c2ccc(OC)c(OC)c2)c2cc(OC)c(O)cc21 (centres unmarked) [Compound 1, 1-(3,4-dimethoxyphenyl)-4-methyl-5-ethyl-7-hydroxy-8-methoxy-5H-2,3-benzodiazepine]	6.9 ± 3.7	22%	–	–	–	20%	0%	no effect	–
CCC1C(C)=NN=C(c2ccc(O)c(OC)c2)c2cc(OC)c(OC)cc21 (centres unmarked) [Compound 3, 1-(3-methoxy-4-hydroxyphenyl)-4-methyl-5-ethyl-7,8-dimethoxy-5H-2,3-benzodiazepine]	20.0 ± 3.1	40%	substantial inhibition of colonic propulsion	–	–	0%	0%	measurable activity	narcosis-potentiating activity
CCC1C(C)=NN=C(c2ccc(O)c(OC)c2)c2cc(OC)c(O)cc21 (centres unmarked) [Compound 5, 1-(3-methoxy-4-hydroxyphenyl)-4-methyl-5-ethyl-7-hydroxy-8-methoxy-5H-2,3-benzodiazepine, reference compound]	12.0 ± 3.2	0%	–	–	–	20%	28.6%	measurable activity	–
CCC1C(C)=NN=C(c2ccc(OC)c(O)c2)c2cc(OC)c(O)cc21 (centres unmarked) [Compound 6, 1-(3-hydroxy-4-methoxyphenyl)-4-methyl-5-ethyl-7-hydroxy-8-methoxy-5H-2,3-benzodiazepine, reference compound]	10.7 ± 3.4	0%	–	–	–	–	–	–	–

— patent US6638928B1, “Treatment of irritable bowel syndrome and nonulcer dyspepsia with substituted 2,3-benzodiazepines” (Vela Pharmaceuticals, Inc., priority 2002, dated 2003)
